According to patent US7927411B2, “Compound, ink, process and use” (Fujifilm Imaging Colorants Limited, priority 2007, dated 2011):

Legend:
[1] = Physical form: liquid crystalline behaviour in aqueous solution; format: physicochemical; details: for Dye (1) at a dye concentration of above about 25% by weight
Description: This is anticipated to correspond to enhanced stability against precipitation and reduced dye degradation for concentrated solutions containing the compounds used in the present invention. The difference in liquid crystalline behaviour is surprising given the structural similarity of Dye (1) and Comparative Dye (1).

[2] = Solubility of dye in water; format: physicochemical

SMILES | liquid crystalline behaviour [1] | solubility in water [2] | solubility in water relative to Comparative Dye (1) ([2]; ratio to Comparative Dye (1))
O=C(O)c1cc(/N=N/c2ccc(Nc3nc(NCCO)nc(Nc4ccc(/N=N/c5cc(S(=O)(=O)O)c6cccc(S(=O)(=O)O)c6c5)cc4)n3)cc2)cc(C(=O)O)c1 [Comparative Dye (1), reference compound] | no liquid crystalline behaviour | 15 % of dye by weight | 
O=C(O)c1cc(/N=N/c2ccc(Nc3nc(Nc4ccc(/N=N/c5cc(S(=O)(=O)O)c6cccc(S(=O)(=O)O)c6c5)cc4)nc(N(CCO)CCO)n3)cc2)cc(C(=O)O)c1 [Dye (1)] | exhibited liquid crystalline characteristics | 30 % of dye by weight | twice
